These results are taken from ChEMBL document CHEMBL1155891, “Synthesis and antiviral evaluation of some new pyrazole and fused pyrazolopyrimidine derivatives” (Bioorg Med Chem, 2008).

Test [1] relates to Human alphaherpesvirus 1. Kind of test: Antiviral activity against HSV1 10 ug/10^5 cells by plaque infectivity assay. Type of test: functional, organism-based.
The subject of test [2] is Hepatovirus A. Kind of test: Antiviral activity against HAV 10 ug/10^5 cells by plaque infectivity assay. It is filed as functional, organism-based.
In test [3] the test system is Human alphaherpesvirus 1. Kind of test: Antiviral activity against HSV1 20 ug/10^5 cells by plaque infectivity assay. Type of test: functional, organism-based.
Test [4] has as its system Hepatovirus A. Kind of test: Antiviral activity against HAV 20 ug/10^5 cells by plaque infectivity assay.

Structures are written as SMILES. Activity calls are given as the source filed them. The calls are words filed in the database; no cut-off is given here.

Turning to `N#Cc1cnn(-c2ncnc3sc4c(c23)-c2ccccc2CC4)c1NC(=S)NC(=O)c1ccccc1`, the result in test [1], in test [2] and in test [3] was Active.

As for `COCCSc1ncnc2c1cnn2-c1ncnc2sc3c(c12)-c1ccccc1CC3`, the outcome in test [1] and in test [3] was Active.

As for `COC(CSc1ncnc2c1cnn2-c1ncnc2sc3c(c12)-c1ccccc1CC3)OC`, in test [1], the result was Active.

Turning to `CCOC(=O)c1cnn(-c2ncnc3sc4c(c23)-c2ccccc2CC4)c1N`, the result in test [4] was Active.

Turning to `N#Cc1cnn(-c2ncnc3sc4c(c23)-c2ccccc2CC4)c1N`, the result in test [4] and in test [2] was Active.
